In article PMC12426922, “Fingerprinting the Intestinal Transport of Low-Molecular-Mass Advanced Glycation End-Products (AGEs) Using a Caco‑2 Transwell Model” (Journal of Agricultural and Food Chemistry, 2025):
Where “and” joins values, the source holds several entries; their conditions need not be identical. Equal values may be shown once. Read-outs that look alike come from different tables or passages of the source. Marks after values point to notes of the source that are not given here.

Experiments:
[1] = test system: differentiated Caco-2 cells; experiment: WST-1 cytotoxicity assay, viability of differentiated Caco-2 cells after 2 h exposure; assay type: cell-based, Human
Protocol: (§1) Human colon carcinoma cells (Caco-2 cells) were obtained from the American Type Culture Collection (ATCC, Rockville, MD, USA). Caco-2 cells were cultured in complete culture medium, composed of DMEM GlutaMAX with 10% FBS (v/v), 1% P/S (v/v), and 1% NEAA (v/v) at 37 °C in a 5% (v/v) CO2 incubator. In this study, Caco-2 cells within passages 10–15 were utilized.
The WST-1 assay was used to quantify the viability of differentiated Caco-2 cells upon exposure to the individual AGEs and their equimolar mixture. To this end, Caco-2 cells were seeded in 96-well plates at 3 × 10^4 cells/well (100 μL) and incubated at 37 °C under 5% (v/v) CO2 for 20 days. The complete culture medium was refreshed on each alternate day. After full differentiation, the culture medium was removed, and the cells were washed with HBSS (containing 1% (v/v) HEPES) twice on the testing day. The same volume (100 μL) of HBSS containing a series of concentrations of the different individual test compounds or of a mixture containing all 10 AGEs was added from a 20-times-concentrated stock solution in HBSS. The test concentrations were designed based on the estimated daily intake of total AGEs (0.55–0.66 mg/(kg·day)) and high-exposure scenarios (1.4–1.8 mg/(kg day)). […] After exposure for 2 h, the absorbance at 440 and 620 nm was measured in a plate spectrophotometer (Molecular Devices, San Jose, CA, USA, Spectra Max M2). After measurement, the cell viability was calculated as cell viability (%)=(Atested 440 nm−Atested 620 nm)/(Acontrol 440 nm−Acontrol 620 nm)×100

[2] = Transport of AGE mixture across Caco-2 cell layer (transwell, apical to basolateral); assay type: in vitro ADME, Human; details: human; for recovery at 2 h, 100 μmol/L: read-out: percentage of the amount added at the apical side at t = 0: recovery; for Papp at 120 min, 100 μmol/L: data from 120 min
Protocol: as §1
(§2) Caco-2 cells were cultured until reaching 50%–60% confluence (undifferentiated Caco-2 cells), followed by trypsinization. Then, cells were seeded at 3 × 10^4 cells per insert in 100 μL of complete culture medium into the transwell inserts of a 24-well transwell plate, and 600 μL of complete culture medium was added to the basolateral compartments. In both the apical and basolateral compartments, the medium was renewed every other day. After 2 weeks, the transepithelial electrical resistance (TEER) value was measured using a Millicell ERS-2 Electrical Resistance System (Burlington, MA, USA) every other day. Only wells with a TEER value of >400 Ω/cm^2 were used for transport experiments. Moreover, the TEER value was measured before and after the transport experiment to ascertain that the Caco-2 cell layer remained intact during the whole transport experiment.
(§3) Transport experiments were performed after 20 days of differentiation of the Caco-2 cells. The culture medium was replaced with HBSS (containing 1% (v/v) HEPES) 30 min prior to testing in both the apical and basolateral compartments. After the 30 min preincubation, 100 μL of HBSS containing a mixture of the 10 different AGEs including CML, CEL, GALA, argpyrimidine, MG-H1, GOLD, GOLA, MOLD, pentosidine, and pyrraline, each at 100 μmol/L, was added to the apical compartment after removing the preincubation medium, while the basolateral medium was replaced by 600 μL of HBSS. […] At 120 min, a 10 μL sample from the apical side was taken for calculating apical side retention (nontransported percentage).
(§4) The apparent permeability coefficient (Papp) value was calculated according to the methodology described by Yee.
(§5) AGEs were quantified by LC-MS using a Shimadzu Nexera XR LC-40D XR UPLC system (Kyoto, Japan) equipped with a UPLC Amide column (100 mm × 2.1 mm, 1.7 μm) without derivatization coupled with a Shimadzu LCMS-8045 triple quadrupole mass spectrometer (Kyoto, Japan). The analytical column was maintained at 40 °C throughout the quantification process. A multistep binary gradient system of water containing 0.1% (v/v) formic acid (solvent A) and acetonitrile containing 0.1% (v/v) formic acid (solvent B) was used. In the whole gradient program, the total proportion of solvents A and B is always equal to 100%. The gradient program was designed as follows: 75% solvent B to 12.5% solvent B from 0 to 10 min, followed by 12.5% solvent B from 10 to 11 min. […] The initial flow rate was set to 0.30 mL/min. Subsequently, it was reduced to 0.25 mL/min at 0.3 min, which was kept until 10 min. Afterward, there was a gradual decrease, reaching 0.15 mL/min at 11 min, and this rate was maintained until 12 min. […] Between 1 and 11 min of gradient running, the line was set to MS, and for the other time periods, the line was set to waste. The retention time and mass spectrometry parameters of individual AGEs are listed in Table S1 and the chromatograms of the samples are shown in Figure S1.

Caco-2 cell layer = experiment: as above; assay type: in vitro ADME, Human; details: for effect of 4 °C on transport compared to 37 °C: 4 °C versus 37 °C; for percentage of the amount added at the apical side at t = 0: apical side / percentage of the amount added at the apical side at t = 0: basolateral side / percentage of the amount added at the apical side at t = 0: apical side (nontransported) / percentage of the amount added at the apical side at t = 0: basolateral side (transported): mixture, each AGE 100 μmol/L, 2 h; for percentage of the amount added at the apical side at t = 0: apical side (nontransported) / percentage of the amount added at the apical side at t = 0: basolateral side (transported): standard treatment
Protocol: as §1, §2, §3, §4, §5

PepT1 = experiment: as above; assay type: in vitro ADME, Human; details: human, mixture, each AGE 100 μmol/L; for recovery at 2 h, 100 μmol/L: Caco-2, with Gly-Sar 10 mmol/L (apical compartment), Gly-Sar 10 mmol/L, read-out: percentage of the amount added at the apical side at t = 0: recovery; for Papp at 120 min, 100 μmol/L: Caco-2, with Gly-Sar 10 mmol/L (apical), 10 mmol/L Gly-Sar apical (PepT1 inhibition), data from 120 min
Protocol: as §1, §2, §3, §4, §5

Caco-2 cell monolayer [3] = experiment: Accumulation of AGEs in the Caco-2 cell monolayer after transport experiment; assay type: in vitro ADME, Human; details: mixture, each AGE 100 μmol/L, 2 h
Protocol: After the transport experiment, the cell monolayer on the inset membrane was washed three times with HBSS and three times with PBS. […] The samples were subsequently centrifuged at 16 000g for 20 min at 4 °C, and the supernatant was collected for further analysis by LC-MS.
as §5, with “The” for “AGEs were quantified by LC-MS using a Shimadzu Nexera XR LC-40D XR UPLC system (Kyoto, Japan) equipped with a UPLC Amide column (100 mm × 2.1 mm, 1.7 μm) without derivatization coupled with a Shimadzu LCMS-8045 triple quadrupole mass spectrometer (Kyoto, Japan). The”, “100%.” for “100%. The gradient program was designed as follows: 75% solvent B to 12.5% solvent B from 0 to 10 min, followed by 12.5% solvent B from 10 to 11 min.”

Caco-2 cell monolayer [4] = test system: Caco-2 cell monolayer; design: method as in our previous study; details: CML in single testing; ref our previous study; cited from earlier work
[5] = Caco-2, 4 °C, mixture, each AGE 100 μmol/L
[6] = Caco-2, cytochalasin D pretreatment, mixture, each AGE 100 μmol/L
[7] = Caco-2, standard treatment (37 °C), equimolar mixture of 10 AGEs, each 100 μmol/L apical
[8] = Caco-2, standard treatment, mixture, each AGE 100 μmol/L
[9] = Caco-2, cytochalasin D 1 μg/mL, 30 min apical preincubation, mixture, each AGE 100 μmol/L

SMILES: N[C@@H](CCCCNCC(=O)O)C(=O)O [CML, N-ε-(carboxymethyl)-lysine]
- effect on cell viability [1]: did not affect cell viability up to the highest concentration tested
- recovery at 2 h, 100 μmol/L [2, 5]: 90 ± 5.3%
- Papp at 120 min, 100 μmol/L [2, 5]: 1.05 nm/s
- recovery at 2 h, 100 μmol/L [2, 6]: 96.9 ± 5.8%
- Papp at 120 min, 100 μmol/L [2, 7]: 2.19 nm/s
- recovery at 2 h, 100 μmol/L [2, 8]: 93.1 ± 6.1%
- Papp at 120 min, 100 μmol/L [2, 9]: 5.61 nm/s
- effect of 4 °C on transport compared to 37 °C (Caco-2 cell layer): significantly reduced
- percentage of the amount added at the apical side at t = 0: apical side (Caco-2 cell layer; 4 °C): 89.4 ± 5.3 ^a %
- percentage of the amount added at the apical side at t = 0: basolateral side (Caco-2 cell layer; 4 °C): 0.3 ± 0.1 ^b %
- percentage of the amount added at the apical side at t = 0: apical side (Caco-2 cell layer; Gly-Sar 10 mmol/L): 86.2 ± 3.6 ^a %
- percentage of the amount added at the apical side at t = 0: basolateral side (Caco-2 cell layer; Gly-Sar 10 mmol/L): 0.5 ± 0.1 ^b %
- percentage of the amount added at the apical side at t = 0: apical side (Caco-2 cell layer; cytochalasin D pretreatment): 91.8 ± 5.7 ^a %
- percentage of the amount added at the apical side at t = 0: basolateral side (Caco-2 cell layer; cytochalasin D pretreatment): 1.3 ± 0.6 ^a %
- Papp value in the mixture as percentage of the Papp value tested in isolation in previous study (Caco-2 cell layer; mixture versus compound in isolation (our previous study)): 57%
- percentage of the amount added at the apical side at t = 0: apical side (nontransported) (Caco-2 cell layer): 89.0 ± 6.1 ^a %
- percentage of the amount added at the apical side at t = 0: basolateral side (transported) (Caco-2 cell layer): 0.5 ± 0.3 ^b %
- recovery at 2 h, 100 μmol/L (PepT1): 92.7 ± 3.1%
- Papp at 120 min, 100 μmol/L (PepT1): 2.07 nm/s
- percentage of the amount added at the apical side at t = 0: accumulation (Caco-2 cell monolayer [3]; 4 °C): 0.3 ± 0.3 ^c %
- percentage of the amount added at the apical side at t = 0: accumulation (Caco-2 cell monolayer [3]; Gly-Sar 10 mmol/L): 6.0 ± 2.1 ^a %
- percentage of the amount added at the apical side at t = 0: accumulation (Caco-2 cell monolayer [3]; cytochalasin D pretreatment): 3.8 ± 0.9 ^b %
- percentage of the amount added at the apical side at t = 0: accumulation (intracellular) (Caco-2 cell monolayer [3]; standard treatment): 3.5% and 3.5 ± 0.6 ^b %
- intracellular accumulation (Caco-2 cell monolayer [4]): 4.5%

SMILES: N[C@@H](CCCCn1cc[n+](CCCC[C@H](N)C(=O)O)c1)C(=O)O [GOLD, glyoxal-derived lysine dimer]
- effect on cell viability [1]: did not affect cell viability up to the highest concentration tested
- recovery at 2 h, 100 μmol/L [2, 5]: 89.8 ± 13.2%
- Papp at 120 min, 100 μmol/L [2, 5]: 0.69 nm/s
- recovery at 2 h, 100 μmol/L [2, 6]: 102 ± 9.5%
- Papp at 120 min, 100 μmol/L [2, 7]: 1.34 nm/s
- recovery at 2 h, 100 μmol/L [2, 8]: 95 ± 8.2%
- Papp at 120 min, 100 μmol/L [2, 9]: 3.2 nm/s
- effect of 4 °C on transport compared to 37 °C (Caco-2 cell layer): significantly reduced
- percentage of the amount added at the apical side at t = 0: apical side (Caco-2 cell layer; 4 °C): 89.6 ± 13.2 ^b %
- percentage of the amount added at the apical side at t = 0: basolateral side (Caco-2 cell layer; 4 °C): 0.1 ± 0.1 ^b %
- percentage of the amount added at the apical side at t = 0: apical side (Caco-2 cell layer; Gly-Sar 10 mmol/L): 93.7 ± 7.9 ^ab %
- percentage of the amount added at the apical side at t = 0: basolateral side (Caco-2 cell layer; Gly-Sar 10 mmol/L): 0.2 ± 0.1 ^b %
- percentage of the amount added at the apical side at t = 0: apical side (Caco-2 cell layer; cytochalasin D pretreatment): 101.2 ± 9.4 ^a %
- percentage of the amount added at the apical side at t = 0: basolateral side (Caco-2 cell layer; cytochalasin D pretreatment): 0.8 ± 0.3 ^a %
- percentage of the amount added at the apical side at t = 0: apical side (nontransported) (Caco-2 cell layer): 94.6 ± 8.1 ^ab %
- percentage of the amount added at the apical side at t = 0: basolateral side (transported) (Caco-2 cell layer): 0.3 ± 0.2 ^b %
- recovery at 2 h, 100 μmol/L (PepT1): 94.1 ± 8%
- Papp at 120 min, 100 μmol/L (PepT1): 1 nm/s
- percentage of the amount added at the apical side at t = 0: accumulation (Caco-2 cell monolayer [3]; 4 °C): 0.0 ± 0.0 ^c %
- percentage of the amount added at the apical side at t = 0: accumulation (Caco-2 cell monolayer [3]; Gly-Sar 10 mmol/L): 0.1 ± 0.0 ^a %
- percentage of the amount added at the apical side at t = 0: accumulation (Caco-2 cell monolayer [3]; cytochalasin D pretreatment): 0.0 ± 0.0 ^ab %
